Assay [1] addresses T1, L-amino acid oxidase from Rhodococcus opacus (Rhodococcus opacus, UniProt Q8VPD4).
T1 construct: made in house; host or cells: Rhodococcus opacus DSM 43250, the natural producer; purified from crude cell extract, not recombinant
As to the kind of experiment: Substrate spectrum and stereospecificity of L-amino acid oxidase. It counts as biochemical. Conditions: relative to 10 mM L-alanine. As for the experimental part:
The transformation of a large number of natural and non-natural amino acids was investigated. The following test batch (1 mL) was used for this purpose: 10 mM enantiomer-pure amino acid (or 20 mM D,L-amino acid); 0.2 M TEA-HCl buffer, pH 7.6; 0.2 mg/mL odianisidine; 10 U/mL POX; L-amino acid oxidase solution in limiting amounts. The activity measurements were carried out by photometry at 436 nm and 30° C.
The stereospecificity of the L-amino acid oxidase was measured for several substrates (e.g. alanine, asparagine, glutamine, phenylalanine, methionine, leucine, ornithine, lysine, histidine), in that both the D-form and the L-form, as well as the racemate were used. In this connection, D-amino acids are not transformed in any case. The activities with the racemates were as high, for all the substrates, as for the pure L-amino acids in each instance. […] In the determination of the substrate spectrum, it is therefore also possible to use the D,L-form.
The measured activity values were indicated as relative values with reference to the activity with 10 mM L-alanine (Table 4). Weak activity was indicated with a + in the table.

Assay [2] concerns the target T1, L-amino acid oxidase from Rhodococcus opacus. As to the kind of experiment: biochemical. As for the experimental part: To determine the kinetic constants, the reaction speed of oxidation was studied at different concentrations of amino acid and for different L-amino acids, under the following conditions (tests in microtiter plates):
0.2 M TEA-HCl buffer, pH 7.6; 0.2 mg/mL o-dianisidine; 25 U/mL POX; L-amino acid oxidase in limiting amounts; varying concentrations of the different L-amino acids. Activity measurement was conducted by photometry at 450 nm and 30° C.
The kinetic constants Vmax.

Assay [3] shares this target. As to the kind of experiment: Transformation of D,L-amino acid with L-amino acid oxidase, HPLC analysis of L- and D-form. It counts as biochemical. Conditions: for concentration of the D-form during the reaction: 7 mM D,L-amino acid. Here is the method: […] The total volume of the batch was 1 mL. Samples (50 μL) were taken at regular intervals, and analyzed for the content of L- and D-phenylalanine, using HPLC. Directly after being taken, the samples were heated to 95° C. for 3 min, and then the precipitated protein was centrifuged off. 20 μL of the diluted top fraction were put into 180 μL 100 mM sodium borate buffer, pH 10.4, and mixed with 20 μL of a derivativization reagent (260 mM isobuturyl-L-cysteine (IBLC) and 170 mM ophthaldialdehyde (OPA) in 100 mM sodium borate buffer, pH 10.4).
Separation conditions of HPLC:
Column: RP-18, 250×4 mm, 5 Am, Kromasil (Phenomenex, Aschaffenburg, Germany)
Detection: fluorescence, Ex. 340 nm, Em. 440 nm
Flow agent A: 23 mM sodium acetate buffer; pH 6.5 adjusted with acetic acid
Flow agent B: acetonitrile:water (10:1.5)

[4] abbreviates: marked #: used in racemic form (20 mM D,L-amino acid).
Setting [5] is: 10 mM enantiomer-pure amino acid, pH 7.6, 30° C., 436 nm.
Where [6] appears, read: marked *: poor solubility, 100 μL top fraction of saturated L-amino acid solution per batch.
Where [7] appears, read: 0.2 M TEA-HCl buffer, pH 7.6, 30° C., constant of the amino acid as substrate, read-out: Ki.

Read-outs that look alike come from different tables or passages of the source.

T1 sequence (Q8VPD4 46-534): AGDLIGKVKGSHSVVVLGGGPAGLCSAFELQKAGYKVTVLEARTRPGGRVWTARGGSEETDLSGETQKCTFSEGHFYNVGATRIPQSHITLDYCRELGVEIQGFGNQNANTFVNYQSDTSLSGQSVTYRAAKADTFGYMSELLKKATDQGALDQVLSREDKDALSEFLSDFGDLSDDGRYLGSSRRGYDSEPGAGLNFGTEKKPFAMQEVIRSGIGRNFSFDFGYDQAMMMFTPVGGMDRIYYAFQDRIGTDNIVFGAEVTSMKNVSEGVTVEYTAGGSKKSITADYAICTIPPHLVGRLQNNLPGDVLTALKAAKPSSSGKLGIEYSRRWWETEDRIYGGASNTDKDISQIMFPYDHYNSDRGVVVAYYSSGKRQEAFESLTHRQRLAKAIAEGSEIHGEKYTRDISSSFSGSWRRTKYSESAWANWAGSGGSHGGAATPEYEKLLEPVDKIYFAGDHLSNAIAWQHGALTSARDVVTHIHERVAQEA

Take `COC[C@H](N)C(=O)O` (racemic) [O-methyl serine]: the “Rel. activity (%)” value in assay [1] (setting [4]) stood at 99%. Consider `CC[C@H](C)[C@H](N)C(=O)O` [Isoleucine], for which the “Rel. activity (%)” value in assay [1] (setting [5]) turned out to be 45%. As for `NC(=O)C[C@H](N)C(=O)O` [Asparagine], the “Rel. activity (%)” value in assay [1] (setting [5]) was determined as 97%.

`NCCC(N)C(=O)O` (stereo not drawn) [2.4-diaminobutyric acid]: in assay [1] (setting [5]), the “Rel. activity (%)” value amounted to 100%.

In the case of `N[C@@H](Cc1ccc(Cl)cc1)C(=O)O` (racemic) [4-chlorophenylalanine], the “Rel. activity (%)” value in assay [1] (setting [5]) is 9%. In the case of `N[C@@H](Cc1cccc2ccccc12)C(=O)O` [3-(1-naphthyl)alanine], in assay [1] (setting [6]), the “Rel. activity (%)” value was found to be 109%.

As to `C[C@H](N)C(=O)O` [Alanine, L-alanine], the “Rel. activity (%)” value in assay [1] (setting [5]) is 100%. In the case of `N[C@@H](CSSC[C@H](N)C(=O)O)C(=O)O` [Cystine], in assay [1] (setting [6]), the “Rel. activity (%)” value was found to be 104%. Regarding `Nc1ccc(C[C@H](N)C(=O)O)cc1` [4-aminophenylalanine], the “Rel. activity (%)” value in assay [1] (setting [5]) turned out to be 16%. `N[C@@H](Cc1c[nH]cn1)C(=O)O` [Histidine]: the “Rel. activity (%)” value in assay [1] (setting [5]) came to 36%. On the same count and under the same terms, as for `N[C@@H](Cc1c[nH]c2ccccc12)C(=O)O` [Tryptophan], the figure is 12%. With `N[C@H](C(=O)O)C(O)c1ccccc1` (mixture of isomers) [β-Phenyl serine], the “Rel. activity (%)” value in assay [1] (setting [4]) was determined as 8%. For `NC1CCOC1=O` (stereo not drawn) [2-amino-4-butyrolactone], the “Rel. activity (%)” value in assay [1] (setting [5]) was 66%. The same measure, in the same setting: as for `NC1CCSC1=O` (stereo not drawn) [Homocysteine thiolactone], the figure is 23%. As for `NC(=O)NCCC[C@H](N)C(=O)O` [Citrulline], the Ki (as a rule, the equilibrium dissociation constant of an inhibitor or competing ligand from its target) in assay [2] (setting [7]) came out at 20.6 mM. In addition, the “Rel. activity (%)” value in assay [1] (setting [5]) is recorded as 74%. Turning to `CC(C)(C)CCC(N)C(=O)O` (stereo not drawn) [2-amino-5,5-dimethyl hexanic acid], the “Rel. activity (%)” value in assay [1] (setting [5]) was 44%. `NCCC[C@H](N)C(=O)O` [Ornithine] returned a Ki in assay [2] of 12.5 mM. In assay [1] (setting [5]), the “Rel. activity (%)” value was 117%. Turning to `NCC(N)C(=O)O` (stereo not drawn) [2.3-diaminopropionic acid], the “Rel. activity (%)” value in assay [1] (setting [5]) was 71%.

Regarding `N[C@@H](Cc1ccc(O)cc1)C(=O)O` [Tyrosine], the “Rel. activity (%)” value in assay [1] (setting [6]) is listed as 54%.

Regarding `CSCC[C@H](N)C(=O)O` [Methionine], the Ki in assay [2] was found to be 6.84 mM. In addition, the “Vmax (U/mg)” value in assay [2] (0.2 M TEA-HCl buffer, pH 7.6, 30° C.) is given as 6.43 U/mg. Further, the “Rel. activity (%)” value in assay [1] (setting [5]) is 72%. For `NCCCC[C@H](N)C(=O)O` [Lysine, L-lysine], the Ki in assay [2] is 63.7 mM. For the same compound, the “Rel. activity (%)” value in assay [1] (setting [5]) is 55%. Take `CC(C)C[C@H](N)C(=O)O` [Leucine, L-leucine]: in assay [2] (setting [7]), the Ki turned out to be 5.69 mM. Moreover, the “Rel. activity (%)” value in assay [1] (setting [5]) worked out at 68%. In addition, the “transformation of the L-form” value in assay [3] (7 mM D,L-leucine, during the first 20 min) is “almost completely transformed”. `NC(=O)CC[C@H](N)C(=O)O` [Glutamine]: the “Rel. activity (%)” value in assay [1] (setting [5]) came out at 52%. Regarding `CC(C)C[C@@H](N)C(=O)O` [D-leucine], the “concentration of the D-form during the reaction” value in assay [3] (35 μg/mL enzyme, pH 7.6) is listed as “remains constant”. The compound further registered an ee value in assay [3] (after a reaction time of 20 min) not below 99.2%.

Take `N[C@@H](Cc1ccc([N+](=O)[O-])cc1)C(=O)O` [4-nitrophenylalanine]: the “Rel. activity (%)” value in assay [1] (setting [6]) stood at 30%. For the compound `N[C@@H](CO)C(=O)O` [Serine], in assay [1] (setting [5]), the “Rel. activity (%)” value worked out at 72%. Consider `N[C@@H](Cc1ccccc1Cl)C(=O)O` [2-chlorophenylalanine], for which the “Rel. activity (%)” value in assay [1] (setting [5]) is recorded as 24%. Same read-out and setting: the same measure for `CC(C)[C@H](N)C(=O)O` [Valine, L-valine]: 32%. In the case of `N[C@@H](CCc1ccccc1)C(=O)O` (racemic) [Homophenylalanine], the “Rel. activity (%)” value in assay [1] (marked *#: racemic form, low concentration (top fraction of saturated solution)) was found to be 50%. Take `CCCC[C@H](N)C(=O)O` (racemic) [Norleucine]: in assay [1] (setting [4]), the “Rel. activity (%)” value came to 73%. Still for that read-out and setting: as for `N[C@@H](Cc1ccc(F)cc1)C(=O)O` (racemic) [4-fluorophenylalanine], the figure is 25%. Consider `CC(=O)NCCCC[C@H](N)C(=O)O` [Nε-acetyllysine], for which the “Rel. activity (%)” value in assay [1] (setting [5]) was 46%. With `N=C(N)NCCC[C@H](N)C(=O)O` [Arginine], in assay [2], the affinity corresponds to a Ki of 5.42 mM. The “Rel. activity (%)” value in assay [1] (setting [5]) came to 70%. Turning to `N[C@@H](Cc1ccccc1)C(=O)O` [Phenylalanine, L-phenylalanine], the Ki in assay [2] (setting [7]) stood at 5.29 mM. The “Rel. activity (%)” value in assay [1] (setting [5]) was determined as 53%. Also, the “concentration in the course of the reaction” value in assay [3] (7 mM D,L-phenylalanine, 35 μg/mL enzyme, pH 7.6, originally 3.5 mM) was less than 0.01 mM. With `N[C@H](Cc1ccccc1)C(=O)O` [D-phenylalanine], in assay [3] (35 μg/mL enzyme, pH 7.6), the “concentration of the D-form during the reaction” value was “remains constant”. Besides, the figures for the ee value in assay [3] (after a reaction time of 30 min) and in assay [3] (after a reaction time of 180 min) were not below 99.2% and not below 99.5%, respectively.

The record behind these values is US6461841B2, “L-amino acid oxidase from Rhodococcus species” (Degussa AG, priority 2000, dated 2002).
